The values that follow come from ChEMBL document CHEMBL2086309, “Discovery of liver selective non-steroidal glucocorticoid receptor antagonist as novel antidiabetic agents” (Bioorg Med Chem Lett, 2012).

Structures are written as SMILES.

In one data set the target is T1, Glucocorticoid receptor (Rattus norvegicus, UniProt P06536).
T1 sequence (P06536 whole entry): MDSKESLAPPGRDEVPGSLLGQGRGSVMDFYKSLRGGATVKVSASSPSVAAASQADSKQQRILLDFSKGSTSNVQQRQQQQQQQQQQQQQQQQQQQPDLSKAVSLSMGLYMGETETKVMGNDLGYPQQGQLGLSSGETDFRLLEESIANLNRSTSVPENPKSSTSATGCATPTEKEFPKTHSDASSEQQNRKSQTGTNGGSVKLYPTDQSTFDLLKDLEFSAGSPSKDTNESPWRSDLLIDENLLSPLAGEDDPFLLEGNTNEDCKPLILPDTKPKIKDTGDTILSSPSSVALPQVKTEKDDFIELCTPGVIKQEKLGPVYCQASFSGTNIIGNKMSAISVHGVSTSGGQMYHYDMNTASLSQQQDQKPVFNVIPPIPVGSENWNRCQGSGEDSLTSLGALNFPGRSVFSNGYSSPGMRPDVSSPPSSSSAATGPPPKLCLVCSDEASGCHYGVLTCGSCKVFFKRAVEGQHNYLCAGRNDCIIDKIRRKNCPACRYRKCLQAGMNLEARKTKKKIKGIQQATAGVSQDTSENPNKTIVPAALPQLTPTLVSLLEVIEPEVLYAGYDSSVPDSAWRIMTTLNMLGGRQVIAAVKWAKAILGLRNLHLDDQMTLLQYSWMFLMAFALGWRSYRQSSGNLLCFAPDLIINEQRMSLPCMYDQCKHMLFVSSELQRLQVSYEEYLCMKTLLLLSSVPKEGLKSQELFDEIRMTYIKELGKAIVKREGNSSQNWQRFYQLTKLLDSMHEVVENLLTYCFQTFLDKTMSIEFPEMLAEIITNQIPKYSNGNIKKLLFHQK
The experiment in a line: Antagonist activity at glucocorticoid receptor in rat hepatocytes assessed as inhibition of dexamethasone-induced […] expression incubated for 30 mins prior to dexamethasone-induction measured after 4 hrs by reporter gene assay. The data set is classed as functional, cell-based, Hepatocyte. On the technique in general: Reporter assays use an easily measured gene product as a stand-in for the process of interest.

A short description of data set [1]: Tmax in Sprague-Dawley rat at 20 mg/kg, po administered as single dose. The class given is ADME, organism-based. Further details: dose 20 mg/kg, route oral. The settings on record: in vivo.
Data set [2] in a line: AUC in Sprague-Dawley rat at 20 mg/kg, iv administered as single dose. The class given is ADME, organism-based. Particulars: plasma. Further details: dose 20 mg/kg, route intravenous.
A further data set deals with Mus musculus. The experiment in a line: Antihyperlipidemic activity in ob/ob mouse assessed as free fatty acid level at 20 mg/kg, po administered BID for 28 days measured 16 hrs post-last dose (reference value: 1.96+/-0.09 mEq/L). The class given is functional.
The next data set deals with Rattus norvegicus. Nature of the data set: Activation of hyphalamic-pituitary-adrenal axis in Sprague-Dawley rat assessed as change in ACTH level at 100 mg/kg, po administered as single dose measured at 2 hrs by ELISA relative to vehicle-treated control. The settings on record: in vivo. Further details: dose 100 mg/kg, route oral. The class given is organism-based. Background: In an ELISA, binding on a coated surface is turned into a signal by an enzyme label.

For the compound `O=C(O)Cc1cc(Br)c(N(Cc2ccc(Oc3ccc(F)cc3F)cc2)Cc2cc(F)cc(F)c2)c(Br)c1`, at Glucocorticoid receptor, the IC50 (usually the midpoint of a concentration-inhibition curve) was 900 nM. For the same compound, in data set [1], the Tmax (usually the time from dosing to the highest level) was found to be 30.6 min. Also, the AUC – broadly, concentration integrated over time – in data set [2] worked out at 13000 ng·h/mL. Besides, the Activity was 1.17 mEq/L with Mus musculus and “Non-toxic” in the data set on Rattus norvegicus.
